In PMC10887108, “Novel Brain-Penetrant, Small-Molecule Tubulin Destabilizers for the Treatment of Glioblastoma” (Biomedicines, 2024):

Columns and labels:
[1] = Brain pharmacokinetics after oral dosing; assay type: in vivo; conditions: 100 mg/kg oral, CD-1 mice, 1, 4 and 8 h
Procedure: Brain pharmacokinetic studies were carried out by DMPK at WuXi AppTec, Inc. (Cranbury, NJ, USA). The brain penetrance of RGN3067 was evaluated in three male CD-1 mice. RGN3067 was formulated as a 10 mg/mL solution (20% DMSO, 80% PEG400: PVP 95:5) and administered by oral gavage at a dose of 100 mg/kg. Plasma and brain samples were collected at 1, 4, and 8 h. Samples were analyzed by LC-MS/MS. A calibration curve was established using Waters ACQUITY UPLC BEH C18 column and formic acid in water and formic acid in acetonitrile as mobile phase. Tolbutamide and labetalol were used as internal standards for LC-MS/MS analysis. Compound was detected using electrospray ionization (ESI) positive detection. Pharmacokinetic parameters were calculated using the PO-noncompartmental linear model in Phoenix WinNonlin software v8.3 (Certara, Princeton, NJ, USA).

[2] = Maximum tolerated dose study; assay type: in vivo; conditions: 25, 50, 100 or 200 mg/kg oral twice daily for 5 days + 5 days observation
Procedure: ; 6 mice per group, including vehicle control). One mouse from each group was euthanized for PK analysis at 6 h post-initial dose. The weight and physical states of the animals were monitored during the 5 days of treatment and for 5 days following drug administration. […]

[3] = tested on: GBM12, GBM15, GBM39 and GBM43 patient-derived GB cell lines; assay: CellTiter-Glo viability assay, four patient-derived GB cell lines; assay type: cell-based; conditions: Homo sapiens, 144 h, read-out: IC50 cell viability, range over four patient-derived GB cell lines
Procedure: (§1) Short-term cultures of patient-derived cells GBM12, GBM15, GBM39 and GBM43 (used with permission Mayo Foundation) were seeded (1000 cells/well) in solid white Corning 384-well plates (Corning, NY, USA) and cultured overnight. Cells were treated with DMSO or RGN3067 in a 13-point dose response with a 1:3 serial dilution from an initial concentration of 100 μM. After 144 h, cell viability was measured using CellTiter-Glo (Promega, Madison, WI, USA). Data were normalized to DMSO control, and absolute IC50 values were calculated using GraphPad Prism 10 (San Diego, CA, USA).

porcine tubulin = molecular target: T1, porcine tubulin (Sus scrofa, UniProt P02554); assay: Tubulin polymerization assay (fluorescent reporter); assay type: biochemical; conditions: compound 5 μM, porcine tubulin 20 μM, relative to DMSO
T1 construct: purchased Cytoskeleton, Inc. BK011P
Procedure: Tubulin polymerization was evaluated by monitoring the incorporation of a fluorescent reporter into MTs during polymerization. The tubulin polymerization assay kit (Cytoskeleton, Inc. BK011P; Denver, CO, USA) was used according to the manufacturer’s instructions. Briefly, the tubulin reaction mix was kept on ice until immediately prior to use.
(A,B) Representative tubulin polymerization plots and data quantification. […] (C) Immunofluorescence staining of β-tubulin in U87 glioblastoma cells. […] Images were captured using an Operetta confocal microscope at 40× magnification. Scale bar, 10 μm. […] Data was collected with a BD FACS Canto II Flow Cytometer and analyzed using the BD FACSDiva software. (E) The percentage of cells in G1, S, and G2/M phases from the histograms in (D). Data are plotted as mean ± SD from at least three independent experiments. Analysis between groups in (B) was performed using a one-way ANOVA with Tukey’s multiple comparisons test.

[4] = tested on: colchicine binding pocket of β-tubulin in MCF-7 cells; assay: EBI competition colchicine-binding site cellular assay; assay type: cell-based, human; conditions: MCF-7, compound 50 µM
Procedure: (C) EBI competition assay in MCF-7 breast cancer cells. […] Total proteins were lysed and subjected to Western blot analysis for β-tubulin. […] GAPDH was employed as the loading control. (D) Quantification of the Western blot in (C). […] Data are plotted as mean ± SD from at least three independent experiments. Analysis between groups in (B) was performed using a one-way ANOVA with Tukey’s multiple comparison test.

U87 glioblastoma cells = assay: Cell cycle analysis (propidium iodide flow cytometry); assay type: cell-based, human; conditions: U87, 5 µM, 48 h
Procedure: […] Cells were washed in ice-cold PBS, resuspended in 1 mL of ice-cold 70% ethanol, and fixed overnight at −20 °C. Cells were centrifuged and resuspended in PBS containing RNAse A at a final concentration of 0.5 mg/mL (MilliporeSigma 10109142001; Burlington, MA, USA) and propidium iodide at a final concentration of 0.04 mg/mL (Sigma-Aldrich P4170, St. Louis, MO, USA) for 1 h at 37 °C. Nuclear staining was analyzed using a BD FACSCanto II flow cytometer (BD Biosciences; Franklin Lakes, NJ, USA) to determine cell cycle distribution. Cell cycle analysis was performed using the BD FACSDiva software v8.0.

[5] = tested on: GBM12 patient-derived xenograft; assay: Subcutaneous GBM12 PDX efficacy model; assay type: in vivo, athymic nude female mice; conditions: 100 mg/kg oral BID, 5 days on/2 days off, four cycles
Procedure: Animal protocols were approved by the Animal Care and Use Committee (ACUC) of the institutes and CRO labs. All studies were performed in compliance with the guidelines. GBM12 cells (5 × 10^6) were injected subcutaneously into athymic nude female mice aged 4–6 weeks. Subcutaneous (SC) tumor size was measured using an external caliper. The greatest longitudinal diameter (length) and the greatest transverse diameter (width) were determined while mice were scruffed and conscious. Tumor volume was calculated by the modified ellipsoidal formula: V = ½ (Length × Width^2). RGN3067 solution was prepared for each mouse. RGN3067 (9.91 mg) was dissolved in DMSO (17 µL) by vortexing for 30–60 s. Approximately 69 μL of PEG400: PVP (95:5, Sigma-Aldrich; St. Louis, MO, USA) solution was added and vortexed.
After tumors reached 100–150 mm^3, mice were dosed with RGN3067 solution (43 µL, 100 mg/kg) or vehicle control twice daily by oral gavage (total dose was 200 mg/kg). Mice were dosed using cycles of 5 days on/2 days off, for a total of four cycles. Mice were euthanized once the tumor reached 2000 mm^3.

[6] = tested on: GBM12 patient-derived GB cells; assay: CellTiter-Glo viability assay, patient-derived GBM12 cells; assay type: cell-based; conditions: Homo sapiens, GBM12, 144 h, read-out: IC50 cell viability
Procedure: as §1

T1 sequence (P02554 whole entry): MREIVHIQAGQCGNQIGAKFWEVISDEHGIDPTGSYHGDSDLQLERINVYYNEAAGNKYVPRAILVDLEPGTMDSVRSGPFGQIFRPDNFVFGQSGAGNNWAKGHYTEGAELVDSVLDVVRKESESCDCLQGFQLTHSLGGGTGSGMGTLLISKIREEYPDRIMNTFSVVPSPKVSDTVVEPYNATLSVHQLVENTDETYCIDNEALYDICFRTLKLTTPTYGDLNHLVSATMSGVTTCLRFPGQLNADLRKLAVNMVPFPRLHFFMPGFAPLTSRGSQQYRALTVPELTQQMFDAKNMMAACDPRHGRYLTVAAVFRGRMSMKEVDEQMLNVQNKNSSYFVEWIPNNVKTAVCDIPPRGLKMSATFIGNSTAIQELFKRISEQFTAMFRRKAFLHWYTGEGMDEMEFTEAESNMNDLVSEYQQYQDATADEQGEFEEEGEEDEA
T1 sequence (P02550 whole entry partner): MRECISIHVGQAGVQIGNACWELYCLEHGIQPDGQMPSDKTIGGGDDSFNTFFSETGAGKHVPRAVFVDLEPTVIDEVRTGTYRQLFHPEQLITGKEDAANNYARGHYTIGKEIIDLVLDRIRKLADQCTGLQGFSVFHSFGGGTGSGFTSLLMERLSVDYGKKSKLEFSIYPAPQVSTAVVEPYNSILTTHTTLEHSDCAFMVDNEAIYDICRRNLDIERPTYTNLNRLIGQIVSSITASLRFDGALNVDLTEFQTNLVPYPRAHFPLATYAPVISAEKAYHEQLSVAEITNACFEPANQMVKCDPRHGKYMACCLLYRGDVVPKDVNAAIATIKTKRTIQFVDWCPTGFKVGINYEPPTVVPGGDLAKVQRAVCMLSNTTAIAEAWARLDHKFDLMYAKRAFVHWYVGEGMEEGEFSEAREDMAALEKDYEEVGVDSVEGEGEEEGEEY

CO[C@H]1C[C@@H](C(=O)NC(=O)Nc2ccc(Oc3ccc(Cl)cn3)c(C)c2)C1 [RGN3067]
distribution in plasma and brain [1]: equal distribution in plasma and brain at all time points
body weight loss [2]: no statistically significant weight loss was observed
IC50 [3]: 148 to 616 nM
reduction in tubulin polymerization (AUC) (porcine tubulin): 49%
formation of the EBI–β-tubulin adduct [4]: reduces the formation of the EBI–β-tubulin adduct
cells arrested at G2/M (U87 glioblastoma cells): 73%
behavior, appearance and weight loss [5]: No changes in behavior or appearance (hair and skin) or statistically significant weight loss was observed
inhibition of tumor growth (tumor volume) ([5]; from day 14 to end of study): statistically significant inhibition of tumor growth
IC50 [6]: 148 nM
